Converted amounts (≈) assume the structure as drawn.
Legend:
Assay type in all cases: cell-based
Aspergillus MF 5668 = assay: Antifungal inhibitor dilution assay in microtiter format (filamentous fungi); details: MF5668, lowest concentration to prevent growth, read-out: Minimum Inhibitory Concentration
Procedure: (§1) The compounds are particularly active towards filamentous fungi and yeasts including Candida albicans and Cryptococcus neoformans. The sensitivity of filamentous fungi and yeast is determined using inhibitor dilution assays in microtiter format. The compounds are dissolved in DMSO at 2 mg/ml and serially diluted in 0.1M phosphate buffer, pH 7.0 in the microtiter dish from 100 to 0.006 μg/ml. A standardized spore suspension for testing the filamentous fungi is prepared by inoculating Antibiotic Medium #3 containing 1.5% agar with spores such that 1.5×10^3 colony forming units are added per well. The microtiter wells are filled with 50 μof buffer containing compound and 50 μl of inoculated medium.
(§2) The sensitivity of yeasts is determined by inoculating yeast nitrogen base containing 1% dextrose (YNB/G) with aliquots of an overnight yeast culture grown in Yeast Morphology (YM) media at 35° C. and diluting in YNB/G to yield a final concentration of 1.5-7.5×10^3 colony forming units/well. To test the sensitivity of yeast, compound is solubilized in 10 percent aqueous DMSO at 2.56 mg/ml. The compound is diluted serially in YNB/G from 128 to 0.06 μg/ml and further diluted 1:10 in YNB/G. The wells are filled with 150 μl of media containing drug. The minimum inhibitory concentration (MIC) is defined as the lowest concentration to prevent growth after an incubation for 42 hours, at 28° C. for the filamentous fungi and 24 to 48 hours, at 35° for the yeasts.

Aspergillus MF 4839 = assay: as above; details: MF4839, lowest concentration to prevent growth, read-out: Minimum Inhibitory Concentration
Procedure: as §1, §2

Aspergillus MF 5669 = assay: as above; details: MF5669, lowest concentration to prevent growth, read-out: Minimum Inhibitory Concentration
Procedure: as §1, §2

Aspergillus MF 0383 = assay: as above; details: MF0383, lowest concentration to prevent growth, read-out: Minimum Inhibitory Concentration
Procedure: as §1, §2

Candida MY 1019 = assay: Antifungal inhibitor dilution assay in microtiter format (yeasts); details: MY1019, lowest concentration to prevent growth, read-out: Minimum Inhibitory Concentration
Procedure: as §1, §2

Sachromyces MY 1976 = assay: as above; details: lowest concentration to prevent growth, read-out: Minimum Inhibitory Concentration
Procedure: as §1, §2

Cryptococcus MY 2061 = assay: as above; details: MY2061, lowest concentration to prevent growth, read-out: Minimum Inhibitory Concentration
Procedure: as §1, §2

Cryptococcus MY 1146 = assay: as above; details: MY1146, lowest concentration to prevent growth, read-out: Minimum Inhibitory Concentration
Procedure: as §1, §2

Candida MY 1055 = assay: as above; details: MY1055, lowest concentration to prevent growth, read-out: Minimum Inhibitory Concentration
Procedure: as §1, §2

Candida MY 2099 = assay: as above; details: MY2099, lowest concentration to prevent growth, read-out: Minimum Inhibitory Concentration
Procedure: as §1, §2

Candida MY 1010 = assay: as above; details: MY1010, lowest concentration to prevent growth, read-out: Minimum Inhibitory Concentration
Procedure: as §1, §2

Cryptococcus MY 1051 = assay: as above; details: MY1051, lowest concentration to prevent growth, read-out: Minimum Inhibitory Concentration
Procedure: as §1, §2

Candida MY 1750 = assay: as above; details: MY1750, lowest concentration to prevent growth, read-out: Minimum Inhibitory Concentration
Procedure: as §1, §2

Candida MY 1028 = assay: as above; details: MY1028, lowest concentration to prevent growth, read-out: Minimum Inhibitory Concentration
Procedure: as §1, §2

Cryptococcus MY 2062 = assay: as above; details: MY2062, lowest concentration to prevent growth, read-out: Minimum Inhibitory Concentration
Procedure: as §1, §2

Candida MY 1012 = assay: as above; details: MY1012, lowest concentration to prevent growth, read-out: Minimum Inhibitory Concentration
Procedure: as §1, §2

| SMILES | MIC (Aspergillus MF 5668) [µg/mL] | MIC (Aspergillus MF 4839) [µg/mL] | MIC (Aspergillus MF 5669) [µg/mL] | MIC (Aspergillus MF 0383) [µg/mL] | MIC (Candida MY 1019) [µg/mL] | MIC (Sachromyces MY 1976) [µg/mL] | MIC (Cryptococcus MY 2061) [µg/mL] | MIC (Cryptococcus MY 1146) [µg/mL] | MIC (Candida MY 1055) [µg/mL] | MIC (Candida MY 2099) [µg/mL] | MIC (Candida MY 1010) [µg/mL] | MIC (Cryptococcus MY 1051) [µg/mL] | MIC (Candida MY 1750) [µg/mL] | MIC (Candida MY 1028) [µg/mL] | MIC (Cryptococcus MY 2062) [µg/mL] | MIC (Candida MY 1012) [µg/mL] |
| --- | --- | --- | --- | --- | --- | --- | --- | --- | --- | --- | --- | --- | --- | --- | --- | --- |
| C=C(CC[C@]12OC[C@@](O)(C(=O)O)[C@](C(=O)O)(O1)[C@H](OC(=O)/C=C/[C@@H](C)C[C@@H](C)CC)[C@H]2O)[C@@H](OC(C)=O)[C@H](C)Cc1ccccc1 [Zaragozic Acid A-3-Descarboxy, (1S,4S,5R,6R,7R)-1-[(4S)-acetoxy-3-methylene-(5R)-methyl-6-phenyl]hexyl-4,6,7-trihydroxy-6-O-((4S),(6S)-dimethyl-2-octenoyl)-2,8-dioxabicyclo-[3.2.1]octane-4,5-dicarboxylic acid] | 32 (≈ 49.5 µM) | 8 (≈ 12.4 µM) | 8 (≈ 12.4 µM) | 2 (≈ 3.09 µM) | > 128 | > 128 | 4 (≈ 6.18 µM) | 2 (≈ 3.09 µM) | 64 (≈ 99 µM) | > 128 | 64 (≈ 99 µM) | 0.25 (≈ 0.387 µM) | 64 (≈ 99 µM) | 32 (≈ 49.5 µM) | 1 (≈ 1.55 µM) | 16 (≈ 24.7 µM) |
| C=C(CC[C@]12OC[C@@](O)(C(=O)OCOC(=O)C(C)(C)C)[C@](C(=O)O)(O1)[C@H](OC(=O)/C=C/[C@@H](C)C[C@@H](C)CC)[C@H]2O)[C@@H](OC(C)=O)[C@H](C)Cc1ccccc1 [Zaragozic acid A-3-descarboxy-4-methyl pivalate ester] | 32 (≈ 42.1 µM) | 32 (≈ 42.1 µM) | 32 (≈ 42.1 µM) | 1 (≈ 1.31 µM) | > 128 | > 128 | 64 (≈ 84.1 µM) | 8 (≈ 10.5 µM) | > 128 | > 128 | > 128 | 2 (≈ 2.63 µM) | > 128 | > 128 | 8 (≈ 10.5 µM) | 16 (≈ 21 µM) |
